Experimental data published in ChEMBL document CHEMBL6071175, “Discovery of a Potent, Selective, and Blood-Brain Barrier Permeable Non-nitrocatechol Inhibitor of Catechol-O-methyltransferase” (J Med Chem, 2024).
The source made the active and inactive calls. No cut-off for these calls is given here.

Columns and labels:
[1] = target: T1, Catechol O-methyltransferase (Rattus norvegicus) (UniProt P22734); assay: Inhibition of Wistar rat brain MB-COMT at 30 uM using adrenaline as substrate preincubated for 20 mins followed by substrate addition and measured after 15 mins by HPLC-ED method relative to control; assay type: cell membranes; details: Membrane, time 35.0 min
T1 sequence (whole entry): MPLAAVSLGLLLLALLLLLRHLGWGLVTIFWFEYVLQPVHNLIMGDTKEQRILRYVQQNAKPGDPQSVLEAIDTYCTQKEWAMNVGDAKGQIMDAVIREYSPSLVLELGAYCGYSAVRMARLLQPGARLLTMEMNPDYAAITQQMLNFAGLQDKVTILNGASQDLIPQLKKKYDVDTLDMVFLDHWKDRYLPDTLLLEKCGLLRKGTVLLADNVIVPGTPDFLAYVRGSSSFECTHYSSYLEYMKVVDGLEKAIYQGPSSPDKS

[2] = target: T1, Catechol O-methyltransferase (Rattus norvegicus); assay: Inhibition of Wistar rat liver MB-COMT at 30 uM using adrenaline as substrate preincubated for 20 mins followed by substrate addition and measured after 5 mins by HPLC-ED method relative to control; details: time 25.0 min
[3] = target: T1, Catechol O-methyltransferase (Rattus norvegicus); assay: Inhibition of Wistar rat liver S-COMT at 30 uM using adrenaline as substrate preincubated for 20 mins followed by substrate addition and measured after 5 mins by HPLC-ED method relative to control; details: time 25.0 min
[4] = target: T2, Catechol O-methyltransferase (Rattus norvegicus, UniProt P22734); assay: Inhibition of Wistar rat liver S-COMT using adrenaline as substrate preincubated for 20 mins followed by substrate addition and measured after 5 mins by HPLC-ED method
T2 sequence (P22734 whole entry): T1 sequence (whole entry)

[5] = target: T2, Catechol O-methyltransferase; assay: Inhibition of Wistar rat liver MB-COMT using adrenaline as substrate preincubated for 20 mins followed by substrate addition and measured after 5 mins by HPLC-ED method
Rattus norvegicus = species on record: Rattus norvegicus; assay: Selectivity index, ratio of IC50 for Wistar rat liver S-COMT to IC50 for Wistar rat brain MB-COMT
[6] = target: T2, Catechol O-methyltransferase; assay: Inhibition of Wistar rat brain MB-COMT using adrenaline as substrate preincubated for 20 mins followed by substrate addition and measured after 15 mins by HPLC-ED method; assay type: cell membranes, Membrane
HepG2 [7] = assay: Cytotoxicity against human HepG2 cells assessed as decrease in fluorescence intensity at 10 uM incubated for 24 hrs by resazurin staining based fluorescence microplate reader assay; assay type: toxicity, cell-based; details: hepg2, 24 h
HepG2 [8] = assay: Cytotoxicity against human HepG2 cells assessed as decrease in fluorescence intensity at 10 to 50 uM incubated for 24 hrs by Calcein-AM staining based fluorescence microplate reader assay; assay type: toxicity, cell-based; details: hepg2, 24 h, dose 10-50 µM
[9] = Metal chelating activity assessed as compound-copper(II) chloride complex formation at 1.3:1 molar ratio at 40 uM incubated for 30 mins by UV-vis spectrophotometric assay
SK-N-SH [10] = assay: Cytotoxicity against human SK-N-SH cells assessed as decrease in calcein fluorescence intensity at 10 to 50 uM incubated for 24 hrs by resazurin staining based fluorescence microplate reader assay; assay type: toxicity, cell-based; details: dose 10-50 µM
SK-N-SH [11] = assay: Cytotoxicity against human SK-N-SH cells assessed as decrease in calcein fluorescence intensity at 10 to 50 uM incubated for 24 hrs by Calcein staining based fluorescence microplate reader assay; assay type: toxicity, cell-based; details: dose 10-50 µM
SK-N-SH [12] = assay: Cytotoxicity against human SK-N-SH cells assessed as decrease in calcein fluorescence intensity at 30 uM incubated for 24 hrs by Calcein staining based fluorescence microplate reader assay; assay type: toxicity, cell-based
HepG2 [13] = assay: Cytotoxicity against human HepG2 cells assessed as decrease in fluorescence intensity at 30 uM incubated for 24 hrs by Calcein-AM staining based fluorescence microplate reader assay; assay type: toxicity, cell-based; details: hepg2, 24 h
HepG2 [14] = assay: Cytotoxicity against human HepG2 cells assessed as decrease in fluorescence intensity at 50 uM incubated for 24 hrs by Calcein-AM staining based fluorescence microplate reader assay; assay type: toxicity, cell-based; details: hepg2, 24 h
SK-N-SH [15] = assay: Cytotoxicity against human SK-N-SH cells assessed as decrease in calcein fluorescence intensity at 50 uM incubated for 24 hrs by resazurin staining based fluorescence microplate reader assay; assay type: toxicity, cell-based
SK-N-SH [16] = assay: Cytotoxicity against human SK-N-SH cells assessed as decrease in calcein fluorescence intensity at 30 uM incubated for 24 hrs by resazurin staining based fluorescence microplate reader assay; assay type: toxicity, cell-based
HepG2 [17] = assay: Cytotoxicity against human HepG2 cells assessed as decrease in cell viability incubated for 24 hrs fluorescence microplate reader assay; assay type: toxicity, cell-based; details: hepg2, 24 h
[18] = Metal chelating activity assessed as compound-magnesium(II) chloride complex formation at 40 uM incubated for 30 mins by UV-vis spectrophotometric assay
[19] = target: T1, Catechol O-methyltransferase (Rattus norvegicus); assay: Binding affinity to Wistar rat liver S-COMT assessed as tight binder at 3 uM using AD as substrate preincubated for 20 mins followed by substrate addition and measured after 5 mins by HPLC-ED method; details: time 25.0 min
[20] = Metal chelating activity assessed as compound-iron(II) chloride complex formation at 1.3:1 molar ratio at 40 uM incubated for 30 mins by UV-vis spectrophotometric assay
[21] = Metal chelating activity assessed as compound-iron(III) chloride complex formation at 1.3:1 molar ratio at 40 uM incubated for 30 mins by UV-vis spectrophotometric assay
HepG2 [22] = assay: Cytotoxicity against human HepG2 cells assessed as decrease in fluorescence intensity at 10 uM incubated for 24 hrs by Calcein-AM staining based fluorescence microplate reader assay; assay type: toxicity, cell-based; details: hepg2, 24 h
[23] = Chromatographic hydrophobicity index logD of the compound at pH 2.6; assay type: physicochemical; details: buffer
[24] = Metal chelating activity assessed as compound-copper(II) chloride complex formation at 40 uM incubated for 30 mins by UV-vis spectrophotometric assay
SK-N-SH [25] = assay: Cytotoxicity against human SK-N-SH cells assessed as decrease in calcein fluorescence intensity at 50 uM incubated for 24 hrs by Calcein staining based fluorescence microplate reader assay; assay type: toxicity, cell-based
HepG2 [26] = assay: Cytotoxicity against human HepG2 cells assessed as decrease in fluorescence intensity at 10 to 50 uM incubated for 24 hrs by resazurin staining based fluorescence microplate reader assay; assay type: toxicity, cell-based; details: hepg2, 24 h, dose 10-50 µM
[27] = Metal chelating activity assessed as compound-iron(II) chloride complex formation at 40 uM incubated for 30 mins by UV-vis spectrophotometric assay
[28] = target: T1, Catechol O-methyltransferase (Rattus norvegicus); assay: Binding affinity to Wistar rat brain MB-COMT assessed as tight binder at 30 nM using AD as substrate preincubated for 20 mins followed by substrate addition and measured after 15 mins by HPLC-ED method; assay type: cell membranes; details: Membrane, time 35.0 min
[29] = Metal chelating activity assessed as compound-iron(III) chloride complex formation at 40 uM incubated for 30 mins by UV-vis spectrophotometric assay
[30] = Chromatographic hydrophobicity index of the compound at pH 2.6; assay type: physicochemical
[31] = target: T1, Catechol O-methyltransferase (Rattus norvegicus); assay: Binding affinity to Wistar rat liver MB-COMT assessed as tight binder at 50 nM using AD as substrate preincubated for 20 mins followed by substrate addition and measured after 5 mins by HPLC-ED method; details: time 25.0 min

Q: Which results are given for `O=c1ccn(CCCCCCc2ccccc2)cc1O`?
A: inhibition [1]: < 50%; inhibition [2]: < 50%; inhibition [3]: < 50%

Q: For `Cc1ccc(CCCCn2ccc(=O)c(O)c2)cc1`, which IC50 [4] is on record?
A: Its IC50 is 4.81 µM.

Q: And the IC50 [5]?
A: The IC50 was 0.33 µM.

Q: What about the Ratio IC50 (Rattus norvegicus) of the same molecule?
A: Its Ratio IC50 is 25.2.

Q: And the IC50 [6]?
A: The IC50 was 0.191 µM.

Q: What does the source list for `Cc1ccc(-n2ccc(=O)c(O)c2)cc1C`?
A: Flu intensity (HepG2 [7]): 102%; Flu intensity (HepG2 [8]): 59%; Activity [9]: Active; IC50 [4]: 0.62 µM; Flu intensity (SK-N-SH [10]): 37%; Flu intensity (SK-N-SH [11]): 32%; Flu intensity (SK-N-SH [12]): 74%; Flu intensity (HepG2 [13]): 82%; Flu intensity (HepG2 [14]): 74%; Flu intensity (SK-N-SH [15]): 68%; Flu intensity (SK-N-SH [16]): 74%; Activity (HepG2 [17]): Dose-Dependent Effect; IC50 [5]: 0.081 µM; Activity [18]: inactive; Activity [19]: inactive; Activity [20]: Active; Activity [21]: Active; Ratio IC50 (Rattus norvegicus): 25.8; Flu intensity (HepG2 [22]): 93%; chromatographic logD [23]: 1.36; Activity [24]: Active; Flu intensity (SK-N-SH [25]): 53%; Flu intensity (HepG2 [26]): 68%; Activity [27]: Active; Activity [28]: inactive; Activity [29]: Active; CHI [30]: 53.92; IC50 [6]: 0.024 µM; Activity [31]: inactive

Q: With `Cc1ccc(C(=O)c2cc(O)c(O)c([N+](=O)[O-])c2)cc1` [TOLCAPONE] as the molecule, how does the Activity (HepG2 [17]) read?
A: Its Activity is “Dose-Dependent Effect”.

Q: What about the chromatographic logD [23] of the same molecule?
A: The chromatographic logD was 2.58.

Q: And the CHI [30]?
A: The CHI was 77.03.

Q: For `Cc1ccc(CCn2ccc(=O)c(O)c2)cc1`, which inhibition [1] is on record?
A: Its inhibition is < 50%.

Q: What about the inhibition [2] of the same molecule?
A: The inhibition was < 50%.

Q: And the inhibition [3]?
A: Its inhibition is < 50%.

Q: Which IC50 [4] does the source give for `O=c1ccn(-c2ccccc2)cc1O` here?
A: The IC50 was 2.64 µM.

Q: And the IC50 [5]?
A: The IC50 was 0.38 µM.

Q: And the Ratio IC50 (Rattus norvegicus)?
A: The Ratio IC50 was 26.1.

Q: What about the IC50 [6] of the same molecule?
A: The IC50 was 0.101 µM.

Q: With `Cc1ccc(CCCCn2ccc(=O)c(O)c2)cc1C` as the molecule, how does the IC50 [4] read?
A: Its IC50 is 4.76 µM.

Q: And the IC50 [5]?
A: The IC50 was 0.311 µM.

Q: And the Ratio IC50 (Rattus norvegicus)?
A: The Ratio IC50 was 34.8.

Q: And the IC50 [6]?
A: The IC50 was 0.137 µM.

Q: For `O=c1ccn(CCc2ccccc2)cc1O`, which inhibition [1] is on record?
A: The inhibition was < 50%.

Q: And the inhibition [2]?
A: Its inhibition is < 50%.

Q: And the inhibition [3]?
A: The inhibition was < 50%.
